Experimental data as given in patent US11439642B2 (Adverio Pharma GmbH, priority 2010, dated 2022).

Key:
rabbit aorta rings = assay: Vasorelaxant effect in vitro (phenylephrine-contracted aorta rings); settings: Oryctolagus cuniculus, phenylephrine contraction, read-out: IC50 (concentration reducing height of phenylephrine contraction by 50%)
Experimental: Rabbits are stunned by a blow to the neck and exsanguinated. The aorta is removed, freed from adhering tissue and divided into rings of a width of 1.5 mm. The rings are placed individually under an initial tension in 5 ml organ baths with Krebs-Henseleit solution which is at 37° C., is gassed with carbogen and has the following composition (in each case mM): sodium chloride 119; potassium chloride: 4.8; calcium chloride dihydrate: 1; magnesium sulphate heptahydrate: 1.4; potassium dihydrogenphosphate: 1.2; sodium bicarbonate: 25; glucose: 10. The force of contraction is detected with Statham UC2 cells, amplified and digitized via A/D converters (DAS-1802 HC, Keithley Instruments, Munich) and recorded in parallel on chart recorders. To produce a contraction, phenylephrine is added to the bath cumulatively in increasing concentration. After several control cycles, the substance to be investigated is added in each further run in increasing dosage in each case, and the height of the contraction achieved is compared with the height of the contraction reached in the last preceding run. The concentration necessary to reduce the height of the control value by 50% is calculated from this (IC50 value). The standard administration volume is 5 μl and the proportion of DMSO in the bath solution corresponds to 0.1%.

[1] = biological target: T1, recombinant guanylate cyclase reporter cell line (Rattus norvegicus, UniProt P19686+P20595); assay: Effect on a recombinant guanylate cyclase reporter cell line; assay type: cell-based
T1 construct: expressed in transfected cells
T1 sequence (P20595 1-619): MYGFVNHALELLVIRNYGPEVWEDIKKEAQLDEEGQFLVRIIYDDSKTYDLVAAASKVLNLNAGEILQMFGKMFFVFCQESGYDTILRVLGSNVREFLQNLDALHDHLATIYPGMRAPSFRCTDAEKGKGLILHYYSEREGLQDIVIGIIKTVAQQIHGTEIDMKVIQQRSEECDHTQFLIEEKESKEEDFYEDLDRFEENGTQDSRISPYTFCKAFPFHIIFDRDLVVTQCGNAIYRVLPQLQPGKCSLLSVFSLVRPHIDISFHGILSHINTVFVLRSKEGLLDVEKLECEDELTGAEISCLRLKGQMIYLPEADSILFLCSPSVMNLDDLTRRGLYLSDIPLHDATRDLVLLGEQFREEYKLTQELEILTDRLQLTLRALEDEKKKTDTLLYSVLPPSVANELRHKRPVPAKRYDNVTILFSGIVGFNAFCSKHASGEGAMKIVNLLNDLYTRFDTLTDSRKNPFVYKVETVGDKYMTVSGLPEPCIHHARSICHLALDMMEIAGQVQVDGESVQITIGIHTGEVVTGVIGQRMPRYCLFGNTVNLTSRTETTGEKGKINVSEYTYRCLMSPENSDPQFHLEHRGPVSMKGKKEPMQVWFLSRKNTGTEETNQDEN
T1 sequence (P19686 1-690): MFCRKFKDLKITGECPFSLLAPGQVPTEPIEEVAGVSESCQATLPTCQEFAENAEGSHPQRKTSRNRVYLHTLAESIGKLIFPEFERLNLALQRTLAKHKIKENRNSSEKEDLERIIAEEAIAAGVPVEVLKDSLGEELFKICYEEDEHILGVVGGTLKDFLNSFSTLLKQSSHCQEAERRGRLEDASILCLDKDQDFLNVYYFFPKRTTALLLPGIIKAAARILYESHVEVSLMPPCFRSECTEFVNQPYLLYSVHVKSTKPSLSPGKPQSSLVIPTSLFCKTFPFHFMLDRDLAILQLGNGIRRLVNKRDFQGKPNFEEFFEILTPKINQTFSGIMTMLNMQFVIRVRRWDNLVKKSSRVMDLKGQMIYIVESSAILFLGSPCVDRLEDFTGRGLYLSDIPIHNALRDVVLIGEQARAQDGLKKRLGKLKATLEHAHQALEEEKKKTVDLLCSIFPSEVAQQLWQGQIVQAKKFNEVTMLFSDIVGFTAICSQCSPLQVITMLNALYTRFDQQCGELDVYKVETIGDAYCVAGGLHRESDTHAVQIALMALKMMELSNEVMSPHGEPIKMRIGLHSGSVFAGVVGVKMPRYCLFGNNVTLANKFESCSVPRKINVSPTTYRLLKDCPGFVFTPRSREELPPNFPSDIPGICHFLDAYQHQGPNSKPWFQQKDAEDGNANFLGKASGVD
Experimental: The cellular activity of the compounds according to the invention is determined using a recombinant guanylate cyclase reporter cell line, as described in F. Wunder et al., Anal. Biochem. 339, 104-112 (2005).

Row | IC50 (rabbit aorta rings) [nM] | MEC (minimum effective concentration) [1] [µM] | Compound
1 | 515 | 0.03 | COC(=O)N(CC(F)(F)F)c1c(N)nc(-c2nn(Cc3ccccc3F)c3ncc(F)cc23)nc1N [Example 3, Methyl {4,6-diamino-2-[5-fluoro-1-(2-fluorobenzyl)-1H-pyrazolo[3,4-b]pyridin-3-yl]pyrimidin-5-yl}(2,2,2-trifluoroethyl)carbamate]
2 | 251 | 0.1 | COC(=O)N(C)c1c(N)nc(-c2nn(Cc3ccccc3F)c3ncc(F)cc23)nc1N [Example 2]
3 | 958 | 0.3 | COC(=O)Nc1c(N)nc(-c2nn(Cc3ccccc3F)c3ncc(F)cc23)nc1N [Example 1, Methyl {4,6-diamino-2-[5-fluoro-1-(2-fluorobenzyl)-1H-pyrazolo[3,4-b]pyridin-3-yl]pyrimidin-5-yl}carbamate]
